Experimental data as given in patent US9394284B2, “Compounds act at multiple prostaglandin receptors giving a general anti-inflammatory response” (Allergan, Inc., priority 2010, dated 2016).

Experiments:
Type in all cases: cell-based
[1] = target: T1, human prostanoid EP4 receptor (Homo sapiens, UniProt P35408); test: FLIPR Ca2+ signaling antagonist assay, EP4 receptor stable cell line; settings: HEK-293 EBNA stable cell line; standard agonist PGE2; NA = inactive (no antagonism or Kb 10,000 nM); PAg, Ag not defined
T1 construct: expressed in transfected cells
T1 sequence (P35408 whole entry): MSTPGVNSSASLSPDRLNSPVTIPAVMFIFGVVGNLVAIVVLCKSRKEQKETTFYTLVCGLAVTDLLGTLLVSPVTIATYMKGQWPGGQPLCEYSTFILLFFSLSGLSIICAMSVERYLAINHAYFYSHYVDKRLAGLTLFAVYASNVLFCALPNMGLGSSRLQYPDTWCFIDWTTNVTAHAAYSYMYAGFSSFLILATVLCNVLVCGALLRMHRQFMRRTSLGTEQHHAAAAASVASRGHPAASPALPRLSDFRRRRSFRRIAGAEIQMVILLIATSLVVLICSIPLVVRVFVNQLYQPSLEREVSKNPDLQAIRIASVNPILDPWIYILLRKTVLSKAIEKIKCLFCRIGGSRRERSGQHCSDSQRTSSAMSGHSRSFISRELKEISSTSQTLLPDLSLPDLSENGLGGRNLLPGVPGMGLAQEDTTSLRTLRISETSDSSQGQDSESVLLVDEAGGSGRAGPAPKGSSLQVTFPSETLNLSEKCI
Experimental: (§1) The above compounds were tested for PG antagonist activity as follows using human recombinant prostanoid receptor (DP1, EP1-4, FP, IP and TP) stable cell lines:
(§2) In order to measure the response of Gs and Gi coupled prostanoid receptors as a Ca^2+ signal, chimeric G protein cDNAs were used. Stable cell lines over-expressing human prostanoid DP1, EP1-4, FP, IP, and TP receptors were established as follows:
(§3) Briefly, human prostanoid DP1, EP2, and EP4 receptor cDNAs were co-transfected with chimeric Gqs cDNA containing a haemagglutanin (HA) epitope; human prostanoid EP3 receptors were co-transfected with chimeric Gqi-HA; human EP1, FP, IP, and TP receptor cDNAs were expressed with no exogenous G-proteins. Gqs and Gqi chimeric cDNAs (Molecular Devices, Sunnyvale, Calif., U.S.A.), as well as cDNAs of prostanoid receptors, were cloned into a pCEP4 vector with a hygromycin B selection marker. Transfection into HEK-293 EBNA (Epstein-Barr virus nuclear antigen) cells was achieved by the FuGENE 6 transfection Reagent (Roche Applied Science, Indianapolis, Ind., USA). Stable transfectants were selected according to hygromycin resistance. Because Gqs and Gqi contained an HA epitope, G-protein expression was detected by Western blotting analysis using anti-mouse HA monoclonal antibody and horseradish peroxidase (HRP)-conjugated secondary antibody, while functional expression of prostanoid receptors was detected by FLIPR screening (Matias et al., 2004). These stable cell lines were validated using previously published antagonists at 10 μM against serial dilutions of standard agonists by FLIPR functional assays for Ca^2+ Signaling (as described below).
(§4) Ca^2+ signaling studies were performed using a FLIPR TETRA system (Molecular Devices, Sunnyvale, Calif., USA) in the 384-format. This is a high-throughput instrument for cell-based assays to monitor Ca^2+ signaling associated with GPCRs and ion channels. Cells were seeded at a density of 5×10^4 cells/well in BioCoat poly-D-lysine coated, black wall, clear bottom 384-well plates (BD Biosciences, Franklin lakes, NJ, USA) and allowed to attach overnight in an incubator at 37° C. The cells were then washed twice with HBSS-HEPES buffer (Hanks' balanced salt solution without bicarbonate and phenol red, 20 mM HEPES, pH 7.4) using an ELx405 Select CW Microplate Washer (BioTek, Winooski, Vt., USA). After 60 min of dye-loading in the dark using the Ca^2+-sensitive dye Fluo-4AM (Invitrogen, Carlsbad, Calif., USA), at a final concentration of 2×10^−6M, the plates were washed 4 times with HBSS-HEPES buffer to remove excess dye and leaving 50 μl of buffer in each well. The plates were then placed in the FLIPR TETRA instrument and allowed to equilibrate at 37° C. AGN-211377 was added in a 25 μl volume to each well to give final concentrations of 0.1 μM, 0.3 μM, 1 μM, 3 μM, 10 μM, and 30 μM; or 0.067 μM, 0.1 μM, 0.2 μM, 0.3 μM, 0.67 μM, and 1 μM for cells over-expressing TP receptors. After 4.5 minutes, a 7-point serial dilution of the standard agonist for the corresponding receptor, in a 25 μl volume was injected at the final concentrations from 10^−11M to 10^−5M in 10-fold serial dilution increments for cells expressing human recombinant DP1, EP1, EP2, EP3, EP4, FP, and IP receptors. The dose range for the standard agonist for human recombinant TP receptors was from 10^−12 M to 10^−6 M. HBSS-HEPES buffer was used as the negative control for the standard agonists. Cells were excited with LED (light emitting diode) excitation at 470-495 nm and emission was measured through an emission filter at 515-575 nm. Assay plates were read for 3.5 minutes using the FLIPR^TETRA. The peak increase in fluorescence intensity was recorded for each well. On each plate, negative controls, dose response of positive controls, and co-treatments of antagonist-agonist for each dose were in triplicates.
(§5) Standard agonists were as follows: DP=BW 245C, EP1-EP4=PGE2, FP=17-phenyl-PGF2α, IP=Cicaprost, and TP=U-46619. […]

[2] = target: T2, human prostanoid TP receptor (Homo sapiens, UniProt P21731); test: FLIPR Ca2+ signaling antagonist assay, TP receptor stable cell line; settings: HEK-293 EBNA stable cell line; standard agonist U-46619; NA = inactive (no antagonism or Kb 10,000 nM); PAg, Ag not defined
T2 construct: expressed in transfected cells
T2 sequence (P21731 1-343): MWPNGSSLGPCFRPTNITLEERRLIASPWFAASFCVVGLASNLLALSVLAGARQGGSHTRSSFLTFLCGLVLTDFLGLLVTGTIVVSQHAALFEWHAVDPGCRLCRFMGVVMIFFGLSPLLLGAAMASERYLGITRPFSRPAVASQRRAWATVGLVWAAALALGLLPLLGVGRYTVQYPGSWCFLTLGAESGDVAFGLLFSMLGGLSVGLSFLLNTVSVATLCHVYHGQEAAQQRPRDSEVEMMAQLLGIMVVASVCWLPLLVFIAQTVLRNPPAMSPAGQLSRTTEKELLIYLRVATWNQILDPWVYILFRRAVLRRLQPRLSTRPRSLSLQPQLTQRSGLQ
Experimental: as §1, §2, §3, §4, §5

[3] = target: T3, human prostanoid EP1 receptor (Homo sapiens, UniProt P34995); test: FLIPR Ca2+ signaling antagonist assay, EP1 receptor stable cell line; settings: HEK-293 EBNA stable cell line; standard agonist PGE2; NA = inactive (no antagonism or Kb 10,000 nM); PAg, Ag not defined
T3 construct: expressed in transfected cells
T3 sequence (P34995 1-402): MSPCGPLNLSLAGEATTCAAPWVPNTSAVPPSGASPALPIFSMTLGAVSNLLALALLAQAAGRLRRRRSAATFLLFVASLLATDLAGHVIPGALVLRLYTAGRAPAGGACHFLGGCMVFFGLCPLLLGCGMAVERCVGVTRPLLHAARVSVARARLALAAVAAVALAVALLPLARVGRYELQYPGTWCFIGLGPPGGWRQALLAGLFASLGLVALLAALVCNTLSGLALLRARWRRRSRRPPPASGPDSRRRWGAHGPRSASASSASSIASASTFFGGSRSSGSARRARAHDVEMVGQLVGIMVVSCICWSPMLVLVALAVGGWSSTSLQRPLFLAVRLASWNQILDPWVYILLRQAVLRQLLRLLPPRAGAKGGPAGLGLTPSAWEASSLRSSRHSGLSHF
Experimental: as §1, §2, §3, §4, §5

[4] = target: T4, human prostanoid FP receptor (Homo sapiens, UniProt P43088); test: FLIPR Ca2+ signaling antagonist assay, FP receptor stable cell line; settings: HEK-293 EBNA stable cell line; standard agonist 17-phenyl-PGF2α; NA = inactive (no antagonism or Kb 10,000 nM); PAg, Ag not defined
T4 construct: expressed in transfected cells
T4 sequence (P43088 whole entry): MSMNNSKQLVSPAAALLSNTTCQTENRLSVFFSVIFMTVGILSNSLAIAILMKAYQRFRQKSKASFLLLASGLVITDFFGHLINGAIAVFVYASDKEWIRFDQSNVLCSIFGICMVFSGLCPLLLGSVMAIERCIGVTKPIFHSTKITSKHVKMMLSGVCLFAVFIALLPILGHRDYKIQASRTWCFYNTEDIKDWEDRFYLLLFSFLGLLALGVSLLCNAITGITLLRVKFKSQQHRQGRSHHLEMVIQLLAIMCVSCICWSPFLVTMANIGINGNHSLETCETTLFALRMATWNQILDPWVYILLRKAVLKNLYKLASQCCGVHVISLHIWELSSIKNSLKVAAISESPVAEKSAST
Experimental: as §1, §2, §3, §4, §5

[5] = target: T5, human prostanoid DP1 receptor (Homo sapiens, UniProt Q13258); test: FLIPR Ca2+ signaling antagonist assay, DP1 receptor stable cell line; settings: HEK-293 EBNA stable cell line; standard agonist BW 245C; NA = inactive (no antagonism or Kb 10,000 nM); PAg, Ag not defined
T5 construct: expressed in transfected cells
T5 sequence (Q13258 1-359): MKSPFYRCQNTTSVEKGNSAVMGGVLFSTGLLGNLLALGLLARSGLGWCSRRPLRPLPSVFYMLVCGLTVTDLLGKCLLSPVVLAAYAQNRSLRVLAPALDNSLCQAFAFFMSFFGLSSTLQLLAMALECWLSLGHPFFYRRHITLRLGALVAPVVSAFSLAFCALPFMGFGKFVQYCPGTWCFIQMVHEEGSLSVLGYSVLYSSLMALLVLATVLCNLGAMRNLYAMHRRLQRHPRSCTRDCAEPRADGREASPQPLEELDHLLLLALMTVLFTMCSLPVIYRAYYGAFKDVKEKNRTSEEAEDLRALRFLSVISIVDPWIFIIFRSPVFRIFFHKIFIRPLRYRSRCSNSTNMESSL
Experimental: as §1, §2, §3, §4, §5

[6] = target: T6, human prostanoid IP receptor (Homo sapiens, UniProt P43119); test: FLIPR Ca2+ signaling antagonist assay, IP receptor stable cell line; settings: HEK-293 EBNA stable cell line; standard agonist Cicaprost; NA = inactive (no antagonism or Kb 10,000 nM); PAg, Ag not defined
T6 construct: expressed in transfected cells
T6 sequence (P43119 whole entry): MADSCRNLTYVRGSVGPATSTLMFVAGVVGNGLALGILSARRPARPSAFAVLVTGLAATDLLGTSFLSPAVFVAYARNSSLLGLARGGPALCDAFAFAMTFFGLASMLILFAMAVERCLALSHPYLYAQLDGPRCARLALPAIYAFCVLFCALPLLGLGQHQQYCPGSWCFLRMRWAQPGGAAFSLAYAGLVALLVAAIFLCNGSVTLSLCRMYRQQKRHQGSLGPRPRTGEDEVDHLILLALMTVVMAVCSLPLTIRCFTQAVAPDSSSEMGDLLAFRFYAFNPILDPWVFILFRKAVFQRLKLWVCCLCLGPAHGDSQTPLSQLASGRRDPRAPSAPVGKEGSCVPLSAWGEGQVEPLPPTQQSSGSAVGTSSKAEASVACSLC
Experimental: as §1, §2, §3, §4, §5

Row | SMILES | Kb [3] [nM] | Kb [4] [nM] | Kb [1] [nM] | Kb [2] [nM] | Kb [5] [nM] | Kb [6] [nM]
1 | CCC(CC)COc1ccccc1Cn1nc(CC(C)C(=O)O)cc1C (racemic) [Example 69, 3-{1-[2-(2-ethyl-butoxy)-benzyl]-5-methyl-1H-pyrazol-3-yl}-2-methyl-propionic acid] | 180 | 2500 | 600 | 300 | 700 | 
2 | CCC(CC)COc1ccc(C#N)cc1Cn1nc(CCC(=O)O)cc1C [Example 60, 3-{1-[5-Cyano-2-(2-ethyl-butoxy)-benzyl]-5-methyl-1H-pyrazol-3-yl}-propionic acid] | 2100 | 1400 | 2400 | 120 | 4400 | 5400
3 | CCC(CC)COc1ccc(F)cc1Cn1nc(CCC(=O)O)cc1C [Example 47, 3-[1-[2-(2-Ethyl-butoxy)-5-fluoro-benzyl]-5-methyl-1H-pyrazol-3-yl]-propionic acid] | 370 | 2300 | 400 | 100 | 240 | 
4 | CCc1ccc(OCC(CC)CC)c(Cn2nc(CCC(=O)O)cc2C)c1 [Example 66, 3-{1-[5-Ethyl-2-(2-ethyl-butoxy)-benzyl]-5-methyl-1H-pyrazol-3-yl}-propionic acid] | 100 | 500 | 900 | 8 | 260 | 1500
5 | CCC(C)(CC)COc1ccc(Br)cc1Cn1nc(CCC(=O)O)cc1C [Example 11, 3-{1-[5-Bromo-2-(2-ethyl-2-methyl-butoxy)-benzyl]-5-methyl-1H-pyrazol-3-yl}-propionic acid] | 36 | 110 | 430 | 25 | 380 | 
6 | CCC(CC)COc1ccc(C(N)=O)cc1Cn1nc(CCC(=O)O)cc1C [Example 61, 3-{1-[5-Carbamoyl-2-(2-ethyl-butoxy)-benzyl]-5-methyl-1H-pyrazol-3-yl}-propionic acid] |  |  | 800 | 1100 |  | 
7 | CCC(CC)COc1ccc(C(=O)O)cc1Cn1nc(CCC(=O)O)cc1C [Example 62, 3-{1-[5-Carboxy-2-(2-ethyl-butoxy)-benzyl]-5-methyl-1H-pyrazol-3-yl}-propionic acid] | 2000 |  |  | 3700 |  | 

Now from value to compound, other results behind:

Row | Kb [3] [nM] | Kb [4] [nM] | SMILES | Kb [1] [nM] | Kb [2] [nM] | Kb [5] [nM] | Kb [6] [nM]
8 | 180 | 1000 | Cc1cc(CCC(=O)O)nn1Cc1cc(Cl)ccc1OCC1(C(F)(F)F)CCCC1 [Example 37, 3-[1-(5-Chloro-2-(1-trifluoromethylcyclopentylmethoxy)benzyl)-5-methyl-1H-pyrazol-3-yl]-propionic acid] | 1900 | 160 | 400 | 
9 | 800 | 4000 | Cc1cc(CCC(=O)O)nn1Cc1cc(Cl)ccc1OCC1CCCO1 (stereo not shown) [Example 33, 3-[1-(5-Chloro-2-(tetrahydrofuran-2-yl-methoxy)benzyl)-5-methyl-1H-pyrazol-3-yl]-propionic acid] |  | 1000 |  | 
10 | 230 |  | Cc1cc(CCC(=O)NS(=O)(=O)c2ccccc2)nn1Cc1cc(Cl)ccc1OCc1ccc(Cl)cc1Cl [Example 28, N-(3-[1-(5-Chloro-2-(2,4-dichlorobenzyloxy)benzyl)-5-methyl-1H-pyrazol-3-yl]-propionyl)benzenesulfonamide] |  | 540 |  | 
11 | 14 | 500 | Cc1cc(CCC(=O)NS(=O)(=O)C(F)(F)F)nn1Cc1cc(Cl)ccc1OCC(C)C [Example 44, N-(3-[1-(5-Chloro-2-(2-methylpropyloxy)benzyl)-5-methyl-1H-pyrazol-3-yl]-propionyl)C,C,C-trifluoromethanesulfon amide] | 500 | 5 | 800 | 
12 | 180 | 1000 | Cc1cc(CCC(=O)O)nn1Cc1cc(Br)ccc1OCC1(C(F)(F)F)CCCC1 [Example 14, 3-[1-(5-Bromo-2-(1-trifluoromethylcyclopentylmethoxy)-benzyl)-5-methyl-1H-pyrazol-3-yl]-propionic acid] | 1900 | 160 | 400 | 
13 | 560 | 1000 | COc1ccc(OCC2CC2)c(Cn2nc(CCC(=O)O)cc2C)c1 [Example 54, 3-[1-(2-Cyclopropylmethoxy-5-methoxy-benzyl)-5-methyl-1H-pyrazol-3-yl]-propionic acid] | 4700 | 1200 | 1700 | 
14 | 240 | 660 | CCC(CC)Oc1ccc(Cl)cc1Cn1nc(CCC(=O)O)cc1C [Example 45, 3-[1-(5-Chloro-2-(1-ethylpropyloxy)benzyl)-5-methyl-1H-pyrazol-3-yl]-propionic acid] |  | 35 | 500 | 6100
